Source: PubChem BioAssay AID489034 (Sanford-Burnham Center for Chemical Genomics, 2010)
The source made the active and inactive calls.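 The calls were made as follows: active = mean IC50 at or below a set limit; inactive = the rest.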

Key:
[1] = test system: 697 B-cell NF-kB luciferase reporter, PMA/ionomycin, 16 h; experiment: inhibitors of antigen receptor-driven NF-kB, dose response, 697 B cells, PMA/ionomycin, luminescence (AID 489034)
[2] = as above; conditions: 697 B-cell NF-kB luciferase reporter, PMA/ionomycin, 16 h; at 80 µM (top of the series)

| SMILES | IC50 [1] | inhibition [2] |
| --- | --- | --- |
| CC(Nc1ncnc2sccc12)c1ccccc1 (centres undefined) | 64400 nM (inactive) | – |
| COc1ccc(NS(=O)(=O)c2cccc(NC(=O)c3ccc(Cl)nc3)c2)cc1 | 70300 nM (inactive) | – |
| Cc1cc(Cl)c(S(=O)(=O)N2CCCCCC2)cc1OCC(=O)NC1CCCCC1 | > 80000 nM (inactive) | – |
| c1ccc2sc(Sc3ncnc4sccc34)nc2c1 | 197 nM | – |
| CCOc1ccc(S(=O)(=O)NCc2ccncc2)cc1 | > 80000 nM (inactive) | – |
| Cc1sc2ncnc(N3CCN(CCOc4ccc(Cl)cc4)CC3)c2c1C | > 80000 nM (inactive) | – |
| Cc1cc2sc3ccc(C#CC4(O)CCCCC4)cc3c(=O)c2cc1C | < 160 nM | – |
| C[n+]1c(-c2ccccc2)c2cc(N)ccc2c2ccc(N)cc21 | > 80000 nM (inactive) | – |
| O=C(COC(=O)c1ccc[nH]c1=O)Nc1ccc(N2CCCCC2)cc1 | 436 nM | – |
| COc1ccc(/C=C/c2cc(-c3ccc(C)cc3)o[n+]2C)cc1 | 5740 nM | – |
| CCc1cc2c(Sc3nc4ccccc4s3)ncnc2s1 | < 160 nM | – |
| O=C(Nc1ccc([N+](=O)[O-])cc1)C(=O)Nc1cccc(C(=O)O)c1 | 946 nM | – |
| OCCCNc1nccc(-c2cc(Nc3cccc(Cl)c3)ncn2)n1 | 4100 nM | – |
| C#CC(=O)N(c1cc(OC)ccc1OC)C(C(=O)NC1CCCC1)c1cccs1 (centres undefined) | 219 nM | – |
| C#CC(=O)N(c1ccc(OC)c(OC)c1)C(C(=O)NC1CCCC1)c1cccs1 (centres undefined) | 200 nM | – |
| O=C(CN1C(=O)c2ccccc2S1(=O)=O)c1ccc2c(c1)OCCO2 | < 160 nM | – |
| CN(C)c1ccc(-c2n(C)c3ccccc3[n+]2C)cc1 | > 80000 nM (inactive) | – |
| COc1cc(/C=N/NC(=S)Nc2cccc(C(=O)O)c2)ccc1O | 15300 nM | – |
| C[C@@H]1O[C@@H](O[C@@H]2C=C3CC[C@@H]4C(CC[C@]5(C)[C@@H](c6ccc(=O)oc6)CC[C@]45O)[C@@]3(C)CC2)[C@H](O)[C@H](O)[C@H]1O (some centres undefined) | < 160 nM | – |
| Cc1nn(C(C)(C)C)c(C)c1/C=N/OC(=O)Nc1ccc(Cl)cc1 | < 160 nM | – |
| COc1ccc(/C=C2\SC(=O)N(CCCC(=O)Nc3cc(Cl)ccc3C(=O)O)C2=O)cc1 | 331 nM | – |
| Cc1ccc(-c2csc(NC(=O)C3CCN(S(=O)(=O)c4cccs4)CC3)n2)cc1 | > 80000 nM (inactive) | – |
| COCCn1c(C)cc(C2=NNC(=NC3CC3)SC2)c1C | < 160 nM | – |
| Cn1nc(C(C)(C)C)cc1C(=O)NCc1ccc(N2CCCC2=O)cc1 | > 80000 nM (inactive) | – |
| CC(C)Cc1cc(C(C)(C)C)ccc1OC(=S)N(C)C | > 80000 nM (inactive) | – |
| CCc1ccc(-c2nc(CS(=O)CC(=O)NCc3ccco3)c(C)o2)cc1 (centres undefined) | > 80000 nM (inactive) | – |
| COc1cccc2c1C(=O)c1c(O)c3c(c(O)c1C2=O)C[C@@](O)(C(=O)CO)C[C@@H]3O[C@H]1C[C@H](N)[C@H](O)[C@H](C)O1 | > 80000 nM (inactive) | – |

| SMILES | IC50 [1] | inhibition [2] |
| --- | --- | --- |
| Nc1nc(Cl)nc2c1ncn2[C@H]1C[C@H](O)[C@@H](CO)O1 | 5060 nM | – |
| Nc1nc(F)nc2c1ncn2[C@@H]1O[C@H](CO)[C@@H](O)[C@H]1O | 1370 nM | – |
| C#CC(=O)N(c1ccc(OC)cc1OC)C(C(=O)NC1CCCC1)c1cccs1 (centres undefined) | 252 nM | – |
| C=C1C(O)[C@@H]2O[C@]3(CC[C@H](/C=C/C(C)[C@@H]4CC(C)=CC5(O[C@H](C[C@@](C)(O)C(=O)O)CCC5O)O4)O3)CC[C@H]2O[C@@H]1C(O)CC(C)[C@H]1OC2(CCCCO2)CCC1C (some centres undefined) | < 160 nM | – |
| C=C1C(=O)O[C@@H]2C[C@@H](C)[C@@H]3C=CC(=O)[C@@]3(C)[C@@H](OC(C)=O)[C@H]12 | > 80000 nM (inactive) | – |
| CC(C)(C)c1ccc(C(=O)Nc2ccc(CC(=O)O)cc2)o1 | < 160 nM | – |
| Cc1ccc(OCCN2CCN(c3ncnc4sc(C)c(C)c34)CC2)cc1 | > 80000 nM (inactive) | – |
| COc1cc(NC(=O)COc2cc(O)c3c(c2)OC(C)(C)CC3=O)cc(OC)c1OC | 36900 nM (inactive) | – |
| CN=c1scc(-c2ccccc2F)n1/N=C/c1ccc[nH]1 | 702 nM | – |
| COC(=O)Cc1ccc(NC(=O)c2ccc(C(C)(C)C)cc2)cc1 | < 160 nM | – |
| N=c1c2c(n(Cc3ccc(Br)cc3)c3c1CCC3)CCCC2 | – | 60.6% (inactive) |
| O=C(CCl)N1CCCC1c1ccc2c(c1)OCCO2 (centres undefined) | 478 nM | – |
| COc1ccc(OC)c(C2C3=C(COC3=O)Nc3cc4c(cc32)OCO4)c1 (centres undefined) | > 80000 nM (inactive) | – |
| N=c1c2c(-c3ccccc3)c(-c3ccccc3)n(Cc3ccccc3)c2ncn1CCCn1ccnc1 | 32200 nM (inactive) | – |
| CCOc1ccc(/C=C2\SC(=S)N(CCC(=O)O)C2=O)cc1 | 211 nM | – |
| CCN1/C(=C/c2ccc3cc(C)ccc3[n+]2CC)Sc2ccccc21 | > 80000 nM (inactive) | – |
| COc1ccc(-c2nc(-c3ccccn3)no2)cc1 | 872 nM | – |
| Cc1cc(N2CCN(c3nc4ccccc4s3)CC2)n2ncnc2n1 | > 80000 nM (inactive) | – |
| Cn1nccc1C(=O)NC1CCCc2c1cnn2-c1ccccc1F (centres undefined) | 56300 nM (inactive) | – |
| C[C@@H]1C[C@@H]2O[C@H]2/C=C\C=C\C(=O)Cc2c(Cl)c(O)cc(O)c2C(=O)O1 | 275 nM | – |
| C=CCn1c(C)cc(C(=O)CN2C(=O)c3ccccc3S2(=O)=O)c1C | 656 nM | – |
| N=c1ccn2c(n1)O[C@H]1[C@@H](CO)[C@H](O)O[C@H]12 | – | 48.5% |
| O=C(NCCc1ccccc1)c1ccc2c(c1)OCCCO2 | 366 nM | – |
| C=C1C(=O)O[C@@H]2C[C@@H](C)[C@@H]3C=CC(=O)[C@@]3(C)[C@@H](O)[C@H]12 | > 80000 nM (inactive) | – |
| NC1=NC[C@H](Cc2ccc(O)cc2)N1CCCCC1CCCCC1 | > 80000 nM (inactive) | – |
| Cc1ccc2nc(NC(=O)CCCC(=O)O)sc2c1 | 2130 nM | – |
| CCCCCc1ccc(OCCCC[n+]2cccc(C)c2)c(CCCCC)c1 | > 80000 nM (inactive) | – |

| SMILES | IC50 [1] | inhibition [2] |
| --- | --- | --- |
| CC(=O)c1cn(Cc2ccccc2C#N)c2ccccc12 | > 80000 nM (inactive) | – |
| CCOC(=O)C1CCCN(S(=O)(=O)c2ccc(S(=O)(=O)N(CC)CC)cc2)C1 (centres undefined) | > 80000 nM (inactive) | – |
| CCCCC[n+]1cccc2c3ccccc3ccc21 | > 80000 nM (inactive) | – |
| Cn1nc(CC(=O)Nc2ccc3c(c2)CCC3)c2ccccc2c1=O | > 80000 nM (inactive) | – |
| COc1cccc2c1C(CO)N1C(C#N)C3CC(C(=O)O)C(C1C2)N3C (centres undefined) | 253 nM | – |
| O=C(CSc1nnnn1C1CC2CCC1C2)Nc1ccnc2ccccc12 (centres undefined) | > 80000 nM (inactive) | – |
| CCCCCCn1ccc(=N)cc1 | > 80000 nM (inactive) | – |
| CCCCCCn1c2c(c(=N)c3c1CCC3)CCC2 | > 80000 nM (inactive) | – |
| OCCCNc1cc(-c2ccnc(Nc3cccc(Cl)c3)n2)ccn1 | < 160 nM | – |
| CC(C)c1ccc(-c2nnn(CCC(=O)O)n2)cc1 | 202 nM | – |
| CC[n+]1c(C=C2C=C(C)OC(C)=C2)sc2ccccc21 | > 80000 nM (inactive) | – |
| COc1ccc(CCNc2c(C)c(C)nc3ncnn23)cc1 | > 80000 nM (inactive) | – |
| CCn1c(C)nc2cc(-c3nc4n(n3)Cc3ccccc3-4)ccc21 | 198 nM | – |
| O=C(NCCNCCO)C1(C(F)(F)F)C/C(=C\CCO)CCCO1 (centres undefined) | > 80000 nM (inactive) | – |
| Cc1cc([N+](=O)[O-])nn1Cc1ccccc1F | > 80000 nM (inactive) | – |
| CC(=O)OC[C@]12CCC(C)=C[C@H]1O[C@@H]1[C@H](O)[C@@H](OC(C)=O)[C@@]2(C)[C@]12CO2 | < 160 nM | – |
| CCn1c(C)cc(C(=O)COC(=O)c2ccccc2[N+](=O)[O-])c1C | < 160 nM | – |
| COc1ccc(-c2c[n+]3c(n2-c2ccc(C)cc2)CCCCC3)cc1 | > 80000 nM (inactive) | – |
| N#Cc1c(NC(=O)CSc2ncn[nH]2)sc2c1CCCC2 | 300 nM | – |
| COc1ccc(CCNc2ncnc3sc(C)cc23)cc1OC | 33400 nM (inactive) | – |
| O=C(NCCc1ccccc1F)c1ccc2c(c1)OCCO2 | 675 nM | – |
| CCCCCCCCn1ccc(=N)cc1 | > 80000 nM (inactive) | – |
| C#CC(=O)N(c1cccc(OC)c1)C(C(=O)NC1CCCC1)c1cccs1 (centres undefined) | 219 nM | – |
| O=C(/C=C/c1ccccc1)Nc1cccc(C(=O)O)c1 | 620 nM | – |
| Cc1ccc(NC(=O)COc2ccc(N(C)C(=O)C(C)(C)C)cc2)cc1S(=O)(=O)N1CCCCC1 | > 80000 nM (inactive) | – |
